Columns and labels:
[1] = Gevokizumab clinical pharmacokinetics; type: in vivo, human
SW480 = test: CRC SW480 xenograft in humanized BLT mice; type: in vivo, humanized mouse
Method: (§1) • I. Tumor models: The role of IL-1β in tumor immunity and efficacy of IL-1β blocking antibodies were tested in the following preclinical models: • Xenograft tumors in humanized mouse models: NSCLC (H358), TNBC (MDA-MB231) and CRC (SW480) • Syngeneic tumor models: TNBC (4T1) and lung (LL-2) cancer • II. […] Combination treatments include chemotherapeutic agent, docetaxel (6.25 mg/Kg QW IV), PD-1 pathway inhibitors (anti-human PD-1, pembrolizumab 10 mg/Kg Q5D IP or anti-mouse PD-1, clone 1D2 10 mg/Kg QW IP) and anti-mouse VEGF blocking antibody (clone 4G3, 5 mg/Kg Q5D) were used in combination with anti-IL-1β antibody. Appropriate isotype controls were used. In all experiments, dosing was initiated after tumor implantation. • III. Experimental readouts: activity of therapeutic agents in preclinical models were assessed by the following: • Tumor volume was determined by measurement with calipers throughout the course of the study. Tumor weights in milligrams were determined at end of study • Immunohistochemistry analysis was performed on FFPE NSCLC (H358) xenograft tissue • Changes in immune populations in peripheral blood in CRC (SW480) xenograft humanized model and tumors in syngeneic models (4T1 and LL-2) were assessed by flow cytometry using markers for T cell, myeloid populations

hsCRP = hsCRP change after gevokizumab treatment in type 2 diabetes patients; type: in vivo, human; settings: top dose 0.3 mg/kg (~20 mg) Q4W
Text: FIG. 12. Clinical data after gevokizumab treatment (panel a) and its extrapolation to higher doses (panels b, c, and d). Adjusted percent change from baseline in hsCRP in patients in a). The hsCRP exposure-response relationship is shown in b) for six different hsCRP base line concentrations.

4T1 tumors = 4T1 tumors treated with 01BSUR and docetaxel; type: in vivo, Balb/c mice
Method: Treatment of 4T1 Tumors with 01BSUR and Docetaxel Leads to Alterations in the Tumor Microenvironment. Female Balb/c mice with 4T1 tumors implanted subcutaneously (s.c.) on the right flank were treated 8 and 15 days post-tumor implant initiating when the tumors reached about 100 mm^3 with the isotype antibody, docetaxel, 01BSUR, or a combination of docetaxel and 01BSUR. […] 5 days after the first dose, tumors were harvested and analyzed for changes to the infiltrating immune cell populations. This was done again at the end point of the study, 4 days after the second dose.
as §1

LL2 = test: Anti-IL-1β in combination with docetaxel in aggressive lung model (LL2); type: in vivo, mouse
Method: Preclinical Data on the Efficacy of Canakinumab in Combination with Docetaxel in the Treatment of Cancer.
as §1, with “In all experiments, dosing was initiated after tumor implantation. • III.” left out

[2] = tested on: HR-positive, HER2-negative advanced breast cancer; settings: added to first-line endocrine therapy with tamoxifen/NSAI plus goserelin, pre- and peri-menopausal women; cited from earlier work
[3] = tested on: CD34+ blood vessels in trabecular bone; test: Bone microvasculature after suppression of IL-1β signalling; type: in vivo, BALB/c nude mice and C57BL/6 mice
Method: FIG. 7. IL-1β in the bone microenvironment stimulates expansion of the bone metastatic niche. Effects of adding 40 pg/ml or 5 ng/ml recombinant IL-1β to MDA-MB-231 or T47D breast cancer cells is shown in (a) and effects on adding 20 pg/ml, 40 pg/ml or 5 ng/ml IL-1B on proliferation of HS5, bone marrow, or OB1, osteoblasts, are shown in b) and c) respectively. (d) IL-1 driven alterations to the bone vasculature was measured following CD34 staining in the trabecular region of the tibiae from 10-12-week old female IL-1R1 knockout mice. […] Data are shown as mean+/−SEM, *=P<0.01, **=P<0.001, ***=P<0.0001.
FIG. 8. Suppression of IL-1β signalling affects bone integrity and vasculature. […] Data shown are mean+/−SEM, *=P<0.01, **=P<0.001, ***=P<0.0001 compared with control.
(§2) To model human breast cancer metastasis to human bone implants two human bone discs were implanted subcutaneously into 10-week old female NOD SCID mice (n=10/group) under isofluorane anaesthetic. Mice received an injection of 0.003 mg vetergesic and Septrin was added to the drinking water for 1 week following bone implantation. Mice were left for 4 weeks before injecting 1×10^5 MDA-MB-231 Luc2-TdTomato, MCF7 Luc2 or T47D Luc2 cells in 20% Martigel/79% PBS/1% toluene blue into the two hind mammary fat pads. Primary tumor growth and development of metastases was monitored weekly using an IVIS […] system (Caliper Life Sciences) following sub-cutaneous injection of 30 mg/ml D-luciferin (Invitrogen). On termination of experiments mammary tumors, circulating tumor cells, serum and bone metastases were resected. RNA was processed for downstream analysis by real time PCR, and cell lysates were taken for protein analysis and whole tissue for histology as previously described (Nutter et al., 2014; Ottewell et al., 2014a). […] Tumor cells, serum, and bone were subsequently resected for downstream analysis. Bone metastases were investigated following injection of 5×10^5 MDA-MB-231 GFP (control), MDA-MB-231-IV, MDA-MB-231-IL-1B-positive or MDA-MB-231-IL-1R1-positive cells into the lateral tail vein of 6 to 8-week old female BALB/c nude mice (n=12/group). Tumor growth in bones and lungs was monitored weekly by GFP imaging in live animals. Mice were culled 28 days after tumor cell injection at which timepoint hind limbs, lungs and serum were resected and processed for microcomputed tomography imaging (pCT), histology and ELISA analysis of bone turnover markers and circulating cytokines as described (Holen et al., 2016).

[4] = tested on: MDA-MB-231Luc2-TdTomato cells; test: Spontaneous human breast cancer metastasis to human bone implants; type: in vivo, NOD SCID mice
Method: FIG. 4. Pharmacological blockade of IL-1B inhibits spontaneous metastasis to human bone in vivo. Female NOD-SCID mice bearing two 0.5 cm^3 pieces of human femoral bone received intra-mammary injections of MDA-MB-231Luc2-TdTomato cells. […] All animals were culled 35 days following tumour cell injection. Effects on bone metastases (a) were assessed in vivo and immediately post-mortem by luciferase imaging and confirmed ex vivo on histological sections. Data are shown as numbers of photons per second emitted 2 minutes following sub-cutaneous injection of D-luciferin. Effects on numbers of tumour cells detected in the circulation are shown in (b). *=P<0.01. **=P<0.001. ***=P<0.0001.
as §2
Whole blood was centrifuged at 10,000×g for 5 minutes and the serum removed for ELISA assays. The cell pellet was re-suspended in 5 ml of FSM lysis solution (Sigma-Aldrich, Pool, UK) to lyse red blood cells. Remaining cells were re-pelleted, washed 3× in PBS and re-suspended in a solution of PBS/10% FCS. Samples from 10 mice per group were pooled prior to isolation of TdTomato positive tumor cells using a MoFlow High performance cell sorter (Beckman Coulter, Cambridge UK) with the […] laser line from a Coherent I-90C tenable argon ion (Coherent, Santa Clara, Calif.). TdTomato fluorescence was detected by a 555LP dichroic long pass and a 580/30 nm band pass filter. Acquisition and analysis of cells was performed using Summit 4.3 software. After sorting, cells were immediately placed in RNA protect cell reagent (Ambion, Paisley, Renfrew, UK) and stored at −80° C. before RNA extraction. For counting numbers of circulating tumor cells, TdTomato fluorescence was detected using a 561 nm laser and an YL1-A filter (585/16 emission filter). Acquisition and analysis of cells was performed using Attune N×T software.

gevokizumab: high-affinity, humanized monoclonal antibody of the IgG2 isotype to interleukin-1β
Bioavailability ([1]; administered subcutaneously): about 56% | pharmacokinetic model ([1]; after subcutaneous administration): linear two-compartment model with first order absorption | animals with significant reduction in tumor volume (SW480; one of two experiments): 100 % of animals | animals with slower tumor growth (SW480; second experiment, compared to isotype control): 80 % of animals | reduction of hsCRP (hsCRP): up to 45%

CC(=O)O[C@@]12CO[C@@H]1C[C@H](O)[C@@]1(C)C(=O)[C@H](O)C3=C(C)[C@@H](OC(=O)[C@H](O)[C@@H](NC(=O)OC(C)(C)C)c4ccccc4)C[C@@](O)([C@@H](OC(=O)c4ccccc4)[C@H]21)C3(C)C [docetaxel]
granulocytic MDSC (4T1 tumors; 5 days after a single dose): decrease in granulocytic MDSC | neutrophils in 4T1 tumors (4T1 tumors; 5 days after a single dose): decrease in neutrophils | CD4+ and CD8+ T cells expressing TIM-3 (4T1 tumors; four days after a second dose, vs control group): no change in the TIM-3 expressing cells | tumor growth (4T1 tumors; treated days 8 and 15 post tumor implant, vs vehicle/isotype control): delay was enhanced | efficacy (tumor growth) (LL2): modest efficacy

CN(C)C(=O)c1cc2cnc(Nc3ccc(N4CCNCC4)cn3)nc2n1C1CCCC1 [ribociclib]
progression-free survival (PFS) [2]: significantly prolonged progression-free survival

IL-1Ra: IL-1R antagonist (Anakinra) used to inhibit IL-1β signaling
average length of CD34+ blood vessels in trabecular bone ([3]; IL-1Ra 1 mg/kg daily (BALB/c nude), canakinumab single dose (C57BL/6), p<0.01): reduced the average length | endothelin 1 concentration (ELISA) ([3]; compared with control, p<0.01): reduced concentrations | VEGF concentration (ELISA) ([3]; compared with control, p<0.01 IL-1R antagonist, p<0.001 canakinumab): reduced concentrations | mice with metastasis detected in human bone implants ([4]; IL-1Ra 1 mg/kg daily, canakinumab sc every 14 days, from 7 days after tumor cell injection, control 7 out of 10): 4 out of 10 | size of bone metastases ([4]; luciferase imaging, vs control group): smaller than those detected in the control group | tumor cells counted in whole blood ([4]; placebo 108 tumor cells/ml): 3 tumor cells/ml

From patent US20220056123A1, “USE OF IL-1BETA BINDING ANTIBODIES” (NOVARTIS AG, priority 2018, published 2022)
